Like-named read-outs stand apart in the source and are kept apart here.
System: pig buccal membrane
Assay: Trans-buccal absorption across pig buccal epithelial membrane in side-by-side diffusion cells
Settings: for Steady-state flux, Fs: pig, 6 h
Protocol: In a side-by-side diffusion experiment, there exists a reservoir on each side of the test biological membrane. […] The steady state flux of absorption, Fs, is calculated by the formula, Fs=(dQ/dt)/A=(dC/dt)×(V/A), wherein Q is the amount of drug permeated, C is the concentration of the drug, A is the permeation area, V is the chamber volume in a side-by-side diffusion cell, and t is the time period over which the drug permeation is monitored. Fs can be determined from the slope of the line attained from plotting the cumulative amount of drug permeated per unit area as a function of time.
Freshly prepared buccal tissue from pigs was used to prepare the buccal epithelial membrane. A dermatometer was used to obtain the buccal epithelial membrane by separating it from the underlying connective tissue. The buccal membranes were used within 3-4 hours of removal of buccal tissue from the pigs.
The buccal epithelial membrane was mounted between side-by-side diffusion cells. The exposed area of the buccal membrane was approximately 0.64 cm^2. […] The final volume of the liquid in the donor-side was 3.5 ml and the volume in the receptor-side was 3.5 ml.
The diffusion system was maintained at 37° C. throughout the experiment. At predetermined intervals over a period of 6 hours, 150 μl of the solution from the receptor-side was withdrawn for HPLC analysis. The receptor-side was refilled with the same volume (150 μl) of KRB solution.
HPLC analysis of the solution withdrawn from the receptor-side was performed using a Waters 2695 separation module HPLC system equipped with a reverse phase C18 column (150 mm×3.9 mm ID, 5 μm) (Waters Corp., Milford, Mass.). The mobile phase was 88% phosphate buffer (0.05 M NH4H2PO4/H3PO4, pH 3.3) and 12% acetonitrile. […] The software used for HPLC assay data analysis was Millenium 32 (Waters Corp., Milford, Mass.).
Microsoft Excel 2000 was used to calculate the steady state flux value of the absorption of the drug across the buccal membrane. The steady state flux (Fs)=(dQ/dt)/A=(dC/dt)×(V/A), wherein Q is the amount of drug permeated, C is concentration of the drug, A is the permeation area, V is the chamber volume, and t is the time period over which the drug permeation is monitored.
The receptor-side contained 3.5 ml of KRB solution.

| Molecule | effect of absorption enhancer on permeation of sumatriptan succinate across the buccal membrane (result in words) | effect of absorption enhancer on permeation of sumatriptan succinate across the buccal membrane | further results |
| --- | --- | --- | --- |
| CNS(=O)(=O)Cc1ccc2[nH]cc(CCN(C)C)c2c1.O=C(O)CCC(=O)O [Salt (SS) alone, sumatriptan succinate, reference compound] |  |  | Steady-state flux, Fs (12 mM): 6.0 ± 6.6 ng/cm^2/min |
| CCCCCCCCCCCCOS(=O)(=O)[O-].[Na+] [sodium lauryl sulfate (SLS), sodium lauryl sulfate] | enhanced the permeation |  |  |
| CCCCCCCC(=O)[O-].[Na+] [sodium caprylate] | enhanced the permeation |  |  |
| C[C@H](CCC(=O)NCC(=O)[O-])[C@H]1CC[C@H]2[C@@H]3[C@H](O)C[C@@H]4C[C@H](O)CC[C@]4(C)[C@H]3C[C@H](O)[C@]12C.[Na+] [sodium glycocholate] |  | only minor enhancing effects |  |
| CCCCCCCCCCCC(=O)O [lauric acid] |  | only minor enhancing effects |  |
| CNS(=O)(=O)Cc1ccc2[nH]cc(CCN(C)C)c2c1 [Base alone, 3-[2-(dimethylamino)ethyl]-N-methyl-indole-5-methanesulphonamide, reference compound] |  |  | effect of absorption enhancers on absorption of sumatriptan base: not significantly enhanced; Steady-state flux, Fs (6.8 mM): 1.6 ± 1.5 ng/cm^2/min |
| lysolecithin |  | only minor enhancing effects |  |
| CCCCCCCCCCCC(=O)[O-].[Na+] [sodium laurate] | enhanced the permeation |  |  |
| CCCCCCCCCC(=O)[O-].[Na+] [sodium caprate] | enhanced the permeation |  | effect of absorption enhancer on permeation of sumatriptan succinate across the buccal membrane (result in words, listed as Sodium caprate): most dramatic effect |

Reference: patent US20060002989A1, “Formulations of sumatriptan for absorption across biological membranes, and methods of making and using the same” (priority 2004, published 2006)
